The structures appear in SMILES notation. Read-outs that look alike come from different tables or passages of the source.

The record followed here is patent publication US5935959A, “Piperazine derivatives and use as cysteine inhibitors” (Senju Pharmaceutical Co., Ltd., priority 1995, dated 1999).

What all share (assay type): biochemical
For one assay, the system named is trypsin. In words: Assay of Trypsin-Inhibitory Activity (casein degradation). The settings on record: read-out: Trypsin 50% Inhibitory concentration (IC50); casein substrate, pH 8.0, 60 min, 30° C. The protocol: (§1) The activity of papain which is a cysteine protease and of trypsin (Sigma) which is a serine protease was assayed in accordance with the method described in the literature [Anal. Biochem., 208, 387-392, 1993]. Thus, to a solution containing 0.5 mg/ml casein, 50 mM Tris-HCl (pH 8.0), 20 mM dithiothreitol, and 0.2 mM EDTA was added 2.5 μl of dimethyl sulfoxide containing a varying concentration of the test drug as well as 0.03 unit of papain or trypsin to initiate the reaction. The final liquid volume was adjusted to 250 μl. After 60 minutes of reaction at 30° C., 100 μl of the reaction mixture was transferred to another vessel and following addition of 50 μl of purified water and 100 μl of 50% Coumassie brilliant blue solution, the mixture was allowed to stand at room temperature for 15 minutes. The absorbance of the mixture was then measured at 595 nm. Using the value found similarly by adding 2.5 μl of dimethyl sulfoxide not containing the test drug as control and the value found without addition of the enzyme as blank, IC50 was determined in the same manner as above. E64 and leupeptin were used as reference drugs.

A further assay concerns the target T1, μ-calpain (Homo sapiens, UniProt P07384).
T1 construct: purchased Nakarai Tesque
T1 sequence (P07384 1-714): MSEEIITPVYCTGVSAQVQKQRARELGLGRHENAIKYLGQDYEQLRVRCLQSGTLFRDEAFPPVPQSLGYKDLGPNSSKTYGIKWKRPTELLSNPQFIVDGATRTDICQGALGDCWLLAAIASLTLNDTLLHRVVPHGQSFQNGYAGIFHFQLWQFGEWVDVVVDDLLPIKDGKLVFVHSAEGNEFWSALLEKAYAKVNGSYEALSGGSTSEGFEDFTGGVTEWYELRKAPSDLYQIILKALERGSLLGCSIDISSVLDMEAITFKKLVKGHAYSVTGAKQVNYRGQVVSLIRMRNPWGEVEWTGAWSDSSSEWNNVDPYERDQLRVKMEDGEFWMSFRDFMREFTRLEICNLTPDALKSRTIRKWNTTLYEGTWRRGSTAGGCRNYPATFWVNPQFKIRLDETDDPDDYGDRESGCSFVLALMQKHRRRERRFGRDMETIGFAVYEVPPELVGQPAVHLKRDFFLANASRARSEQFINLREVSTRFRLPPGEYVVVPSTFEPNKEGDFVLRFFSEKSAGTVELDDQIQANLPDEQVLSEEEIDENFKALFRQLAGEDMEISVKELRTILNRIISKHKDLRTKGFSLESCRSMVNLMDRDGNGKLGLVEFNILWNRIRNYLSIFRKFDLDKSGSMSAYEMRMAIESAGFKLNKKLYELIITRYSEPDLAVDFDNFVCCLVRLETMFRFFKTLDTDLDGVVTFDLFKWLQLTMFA
T1 sequence (P04632 1-268 partner): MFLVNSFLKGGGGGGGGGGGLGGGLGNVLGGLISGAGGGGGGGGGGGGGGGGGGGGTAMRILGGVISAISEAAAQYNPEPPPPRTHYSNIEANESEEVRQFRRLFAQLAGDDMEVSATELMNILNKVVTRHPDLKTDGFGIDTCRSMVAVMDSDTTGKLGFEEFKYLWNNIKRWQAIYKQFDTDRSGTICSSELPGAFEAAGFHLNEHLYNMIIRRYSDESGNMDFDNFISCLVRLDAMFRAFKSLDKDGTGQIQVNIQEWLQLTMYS
The assay can be described thus: Assay of μ-Calpain-Inhibitory Activity (casein degradation). The settings on record: casein substrate, pH 7.4, 60 min, 30° C. The protocol:
The activity of μ-calpain (Nakarai Tesque) was assayed in accordance with the procedure described in the literature [Anal. Biochem., 208, 387-392 (1993)]. Thus, to a solution containing 0.5 mg/ml casein, 50 mM Tris-HCl (pH 7.4), 20 mM dithiothreitol, and 4 mM calcium chloride was added 2.5 μl of a dimethyl sulfoxide solution containing a varying concentration of the test drug as well as 0.03 unit of μ-calpain to initiate the reaction. The final liquid volume was 250 μl. After 60 minutes of reaction at 30° C., 100 μl of the reaction mixture was transferred to another vessel, to which 50 μl of purified water and 100 μl of 50% Coumassie brilliant blue solution were added. The mixture was allowed to stand at room temperature for 15 minutes and the absorbance was measured at 595 nm. As a control, 2.5 μl of dimethyl sulfoxide not containing the test drug was added and the mixture was treated in the same manner as above. The absorbance value thus found was used as the control value. Similarly, the value found by adding 0.2 mM EDTA in lieu of 4 mM aqueous calcium chloride solution was used as the blank value. […] E64 which is a known cysteine protease inhibition compound was used as a reference drug. [formula]

A further assay addresses T2, cathepsin L (Homo sapiens, UniProt P07711).
T2 construct: purchased Cosmo Bio
The assay can be described thus: Assay of Cathepsin L-Inhibitory Activity (Z-Phe-Arg-MCA). The following applies: Z-Phe-Arg-MCA 20 μM, pH 5.5, 20 min, 30° C. The protocol: The activity of cathepsinL (Cosmo Bio), a cysteine protease, was assayed by the method described in the literature [Methods in Enzymology, 80, 535-561, 1981]. Thus, to a solution containing 85 mM acetate buffer (pH 5.5), 2 mM dithiothreitol, 1 mM EDTA, 2 μg cathepsin L, and a varying concentration of the test compound was added 20 μM carbobenzoxy-L-phenylalanyl-L-arginine-4-methyl-coumaryl-7-amide (Z-Phe-Arg-MCA) to initiate the reaction at the final liquid volume of 200 μl. After 20 minutes of reaction at 30° C., 20 μl of 1M Tris-HCl (pH 8.0) was added so as to stop the reaction. The amount of liberated 4-methyl-7-aminocoumarin was determined with a fluorospectrometer at an excitation wavelength of 360 nm and a fluorescent emission wavelength of 450 nm. Using the value found without addition of the test drug as control and the value found without addition of the enzyme as blank, IC50 was determined in the same manner as above. E64 was used as a reference drug.

Another assay addresses T3, papain (Carica papaya, UniProt P00784).
T3 construct: purchased Sigma
T3 sequence (P00784 134-345): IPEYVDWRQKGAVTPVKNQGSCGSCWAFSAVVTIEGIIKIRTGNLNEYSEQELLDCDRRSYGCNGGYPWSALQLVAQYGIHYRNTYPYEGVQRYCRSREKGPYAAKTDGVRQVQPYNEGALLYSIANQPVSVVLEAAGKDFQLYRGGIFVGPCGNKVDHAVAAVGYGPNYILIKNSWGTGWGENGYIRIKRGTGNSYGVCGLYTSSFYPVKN
The assay can be described thus: Assay of Papain-Inhibitory Activity (casein degradation). The following applies: casein substrate, pH 8.0, 60 min, 30° C. As for the experimental part: as §1

T2 sequence (P07711 114-333, species assumed): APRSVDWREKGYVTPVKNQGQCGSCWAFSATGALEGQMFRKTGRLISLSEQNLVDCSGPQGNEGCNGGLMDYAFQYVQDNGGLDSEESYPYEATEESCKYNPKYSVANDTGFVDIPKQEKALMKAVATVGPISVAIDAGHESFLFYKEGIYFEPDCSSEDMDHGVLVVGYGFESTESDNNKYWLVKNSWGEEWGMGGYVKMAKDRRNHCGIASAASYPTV

Turning to `O=C(O)[C@H]1O[C@@H]1C(=O)N[C@@H](Cc1ccccc1)C(=O)N1CCN(c2ccc(F)cc2)CC1` [Example 21, (2s,3s)-3-[[[[(1s)-1-[[4-(4-fluorophenyl)-1-piperazinyl]carbonyl]-2-phenyl]ethyl]amino]carbonyl]oxiranecarboxylic acid], the IC50 with trypsin is above 3000 µM.
Still for that read-out and setting: in the case of `CC(C)C[C@H](NC(=O)[C@H]1O[C@@H]1C(=O)O)C(=O)N1CCN(c2ccc(F)cc2)CC1` [Example 23, (2s,3s)-3-[[[[(1s)-1-[[4-(4-fluorophenyl)-1-piperazinyl]carbonyl]-3-methyl]butyl]amino]carbonyl]oxiranecarboxylic acid] it was above 3000 µM; in that of `Cc1ccc(S(=O)(=O)N2CCN(C(=O)[C@H](CC(C)C)NC(=O)[C@H]3O[C@@H]3C(=O)O)CC2)cc1` [Example 26, (2s,3s)-3-[[[[(1s)-1-[[4-(4-methylphenylsulfonyl)-1-piperazinyl]carbonyl]-3-methyl]butyl]amino]carbonyl]oxiranecarboxylic acid], above 3000 µM; in that of `CC(C)C[C@H](NC(=O)[C@H]1O[C@@H]1C(=O)O)C(=O)N1CCN(c2ccccc2Cl)CC1` [Example 27, (2s,3s)-3-[[[[(1s)-1-[[4-(2-chlorophenyl)-1-piperazinyl]carbonyl]3-methyl]butyl]amino]carbonyl]oxiranecarboxylic acid], above 3000 µM.
Consider `O=C(O)[C@H]1O[C@@H]1C(=O)NCC(=O)N1CCN(c2ccccc2Cl)CC1` [Example 32, (2s,3s)-3-[[[[[4-(2-chlorophenyl)-1-piperazinyl]carbonyl]methyl]amino]carbonyl]oxiranecarboxylic acid], for which the IC50 on μ-calpain was 17.5 µM; at cathepsin L (read-out: Cathepsin L 50% Inhibitory concentration (IC50)) it was 37.6 µM; in the assay with trypsin, above 3000 µM.
For the compound `CC[C@H](C)[C@H](NC(=O)[C@H]1O[C@@H]1C(=O)O)C(=O)N1CCN(c2ccccc2Cl)CC1` [Example 34, (2s,3s)-3-[[[[(1s)-1-[[4-(2-chlorophenyl)-1-piperazinyl]carbonyl]-2-methyl]butyl]amino]carbonyl]oxiranecarboxylic acid], the figures for the IC50 on cathepsin L and in the assay on trypsin were 0.009 µM and above 3000 µM, respectively.
With `CC(=O)NCSC[C@H](NC(=O)[C@H]1O[C@@H]1C(=O)O)C(=O)N1CCN(c2ccccc2Cl)CC1` [Example 38, (2s,3s)-3-[[[[(1s)-1-[[4-(2-chlorophenyl)-1-piperazinyl]carbonyl]-2-acetylaminomethylthio]ethyl]amino]carbonyl]oxiranecarboxylic acid], on μ-calpain, the IC50 came out at 3.9 µM.
`O=C(O)[C@H]1O[C@@H]1C(=O)NC1(C(=O)N2CCN(c3ccc(F)cc3)CC2)CCCC1` [Example 41, (2s,3s)-3-[[[(1s)-1-[[4-(4-fluorophenyl)-1-piperazinyl]carbonyl]-1-cyclopentyl]amino]carbonyl]oxiranecarboxylic acid]: at μ-calpain, the IC50 stood at 145 µM.
On to `CC(C)C[C@H](NC(=O)[C@H]1O[C@@H]1C(=O)O)C(=O)NCCCCNC(=N)N` [Example E-64, reference compound], for which the IC50 on μ-calpain is 0.66 µM; against cathepsin L, 0.015 µM; against papain, 0.032 µM; with trypsin, above 300 µM.
On to `CC(=O)N[C@@H](CC(C)C)C(=O)N[C@@H](CC(C)C)C(=O)N[C@H](C=O)CCCNC(=N)N` [Leupeptin, reference compound], for which, in the assay on trypsin, the IC50 worked out at 7.4 µM.
